From PubChem BioAssay (NCI)
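A five-concentration, 48-hour dose response in 96-well plates underlies each endpoint, interpolated linearly between surrounding concentrations. Abbreviation: GI50, concentration required for 50% inhibition of growth. The concentration for full growth arrest is given as TGI.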

Columns and labels:
Test in all cases: growth of human tumour cells (NCI), 48 h
[1] = test system: BT-549 breast
[2] = test system: KM12 colon
[3] = test system: NCI-H460 lung
[4] = test system: SF-268 CNS
[5] = test system: SNB-19 CNS
[6] = test system: MCF7 breast
[7] = test system: RPMI-8226 leukemia
[8] = test system: IGROV1 ovarian
[9] = test system: SF-539 CNS
[10] = test system: M14 melanoma
[11] = test system: MOLT-4 leukemia
[12] = test system: NCI-H226 lung
[13] = test system: MDA-MB-435
[14] = test system: HL-60(TB) leukemia
[15] = test system: K-562 leukemia
[16] = test system: SF-295 CNS
[17] = test system: OVCAR-3 ovarian
[18] = test system: NCI-H23 lung
[19] = test system: HOP-62 NSCLC
[20] = test system: MALME-3M melanoma
[21] = test system: A498 renal
[22] = test system: ACHN renal
[23] = test system: SW-620 colon
[24] = test system: UACC-62 melanoma
[25] = test system: COLO 205 colon
[26] = test system: SNB-75 CNS
[27] = test system: HOP-92 NSCLC
[28] = test system: NCI/ADR-RES ovarian
[29] = test system: HCC-2998 colon
[30] = test system: SK-MEL-28 melanoma
[31] = test system: PC-3 prostate
[32] = test system: CAKI-1 renal
[33] = test system: TK-10 renal
[34] = test system: LOX IMVI melanoma
[35] = test system: HT29 colon
[36] = test system: SK-MEL-2 melanoma
[37] = test system: HS 578T breast
[38] = test system: HCT-116 colon
[39] = test system: SR leukemia
[40] = test system: HCT-15 colon
[41] = test system: SN12C renal
[42] = test system: UO-31 renal
[43] = test system: OVCAR-8 ovarian
[44] = test system: OVCAR-4 ovarian
[45] = test system: U251 CNS
[46] = test system: T-47D breast
[47] = test system: SK-OV-3 ovarian
[48] = test system: MDA-MB-231 breast
[49] = test system: OVCAR-5 ovarian
[50] = test system: RXF 393 renal
[51] = test system: DU-145 prostate
[52] = test system: SK-MEL-5 melanoma
[53] = test system: 786-0 renal
[54] = test system: UACC-257 melanoma
[55] = test system: CCRF-CEM leukemia
[56] = test system: NCI-H522 lung
[57] = test system: A549 NSCLC
[58] = test system: EKVX NSCLC

CCCCc1ccc(NS(=O)(=O)c2cc3c4c(c2)CCN4C(=O)CC3)cc1
GI50 [1]: 18 µM
TGI [1]: > 100 µM
GI50 [2]: 26.9 µM
TGI [2]: > 100 µM
GI50 [3]: 28.2 µM
TGI [3]: > 100 µM
GI50 [4]: 30.3 µM
TGI [4]: > 100 µM
GI50 [5]: 29.8 µM
TGI [5]: > 100 µM
GI50 [6]: 9.94 µM
TGI [6]: > 100 µM
GI50 [7]: 7.79 µM
TGI [7]: 57 µM
GI50 [8]: 44.4 µM
TGI [8]: > 100 µM
GI50 [9]: 24.4 µM
TGI [9]: > 100 µM
GI50 [10]: 19.8 µM
TGI [10]: > 100 µM
GI50 [11]: 11.2 µM
TGI [11]: 77.6 µM
GI50 [12]: 15.9 µM
TGI [12]: > 100 µM
GI50 [13]: 16.9 µM
TGI [13]: > 100 µM
GI50 [14]: 12.2 µM
TGI [14]: 58.3 µM
GI50 [15]: 9.3 µM
TGI [15]: > 100 µM
GI50 [16]: 13.4 µM
TGI [16]: 93.8 µM
GI50 [17]: 22.6 µM
TGI [17]: > 100 µM
GI50 [18]: 10.6 µM
TGI [18]: > 100 µM
GI50 [19]: 28.5 µM
TGI [19]: 94.1 µM
GI50 [20]: 35.4 µM
TGI [20]: > 100 µM
GI50 [21]: 5.82 µM
TGI [21]: 37.5 µM
GI50 [22]: 15.7 µM
TGI [22]: > 100 µM
GI50 [23]: 33.5 µM
TGI [23]: > 100 µM
GI50 [24]: 6.1 µM
TGI [24]: 65.2 µM
GI50 [25]: 25.1 µM
TGI [25]: 87.2 µM
GI50 [26]: 18.4 µM
TGI [26]: 78 µM
GI50 [27]: 9.27 µM
TGI [27]: 36.4 µM
GI50 [28]: 7.97 µM
TGI [28]: > 100 µM
GI50 [29]: 89.5 µM
TGI [29]: > 100 µM
GI50 [30]: 39.3 µM
TGI [30]: > 100 µM
GI50 [31]: 11.7 µM
TGI [31]: > 100 µM
GI50 [32]: 8.49 µM
TGI [32]: 78.5 µM
GI50 [33]: 15.1 µM
TGI [33]: 55 µM
GI50 [34]: 35.1 µM
TGI [34]: > 100 µM
GI50 [35]: 32.5 µM
TGI [35]: > 100 µM
GI50 [36]: 17.5 µM
TGI [36]: 63.6 µM
GI50 [37]: 15.2 µM
TGI [37]: 61.2 µM
GI50 [38]: 17.5 µM
TGI [38]: > 100 µM
GI50 [39]: 7.35 µM
TGI [39]: > 100 µM
GI50 [40]: 17 µM
TGI [40]: > 100 µM
GI50 [41]: 34.6 µM
TGI [41]: > 100 µM
GI50 [42]: 12.8 µM
TGI [42]: > 100 µM
GI50 [43]: 19.7 µM
TGI [43]: > 100 µM
GI50 [44]: 25.1 µM
TGI [44]: > 100 µM
GI50 [45]: 23.5 µM
TGI [45]: > 100 µM
GI50 [46]: 5.48 µM
TGI [46]: 72.1 µM
GI50 [47]: 34.9 µM
TGI [47]: > 100 µM
GI50 [48]: 16.1 µM
TGI [48]: > 100 µM
GI50 [49]: 35.8 µM
TGI [49]: > 100 µM
GI50 [50]: 16.1 µM
TGI [50]: 62.5 µM
GI50 [51]: 35.5 µM
TGI [51]: > 100 µM
GI50 [52]: 8.25 µM
TGI [52]: 45.4 µM
GI50 [53]: 17.9 µM
TGI [53]: 74.6 µM

CCC(=O)OCC1OC(n2cnc3c(=S)nc(N)[nH]c32)C(OC(=O)CC)C1OC(=O)CC (stereo not given)
GI50 [1]: 5.42 µM
TGI [1]: > 100 µM
GI50 [2]: 6.06 µM
TGI [2]: 44.4 µM
GI50 [3]: 6.62 µM
TGI [3]: > 100 µM
GI50 [4]: 3.95 µM
TGI [4]: > 100 µM
GI50 [5]: 80.9 µM
TGI [5]: > 100 µM
GI50 [6]: 3.57 µM
TGI [6]: 41.7 µM
GI50 [7]: 3.79 µM
TGI [7]: 67.2 µM
GI50 [8]: 7.49 µM
TGI [8]: 44.5 µM
GI50 [9]: 4.88 µM
TGI [9]: 52.1 µM
GI50 [10]: 2.33 µM
TGI [10]: 24.6 µM
GI50 [11]: 5.31 µM
TGI [11]: > 100 µM
GI50 [12]: 2.62 µM
TGI [12]: > 100 µM
GI50 [13]: 4.73 µM
TGI [13]: > 100 µM
GI50 [15]: 6.69 µM
TGI [15]: > 100 µM
GI50 [16]: 5.27 µM
TGI [16]: > 100 µM
GI50 [17]: 3.03 µM
TGI [17]: 17.7 µM
GI50 [18]: 9.73 µM
TGI [18]: > 100 µM
GI50 [19]: 2.71 µM
TGI [19]: 67.3 µM
GI50 [54]: 35.4 µM
TGI [54]: > 100 µM
GI50 [20]: 2.45 µM
TGI [20]: > 100 µM
GI50 [21]: 15.6 µM
TGI [21]: > 100 µM
GI50 [22]: 5.28 µM
TGI [22]: 93.1 µM
GI50 [23]: 16.3 µM
TGI [23]: > 100 µM
GI50 [24]: 2.29 µM
TGI [24]: 14.4 µM
GI50 [25]: 3.57 µM
TGI [25]: 18.4 µM
GI50 [26]: 3 µM
TGI [26]: 88.9 µM
GI50 [27]: 0.892 µM
TGI [27]: 20.9 µM
GI50 [28]: 14.8 µM
TGI [28]: > 100 µM
GI50 [29]: 15.2 µM
TGI [29]: 73.1 µM
GI50 [30]: 37.5 µM
TGI [30]: > 100 µM
GI50 [31]: 5.2 µM
TGI [31]: > 100 µM
GI50 [32]: 3.52 µM
TGI [32]: > 100 µM
GI50 [33]: 3.63 µM
TGI [33]: > 100 µM
GI50 [34]: 2.17 µM
TGI [34]: > 100 µM
GI50 [35]: 14.7 µM
TGI [35]: > 100 µM
GI50 [36]: 2.89 µM
TGI [36]: 46.4 µM
GI50 [37]: 23.8 µM
TGI [37]: > 100 µM
GI50 [38]: 4.25 µM
TGI [38]: > 100 µM
GI50 [39]: 0.828 µM
TGI [39]: > 100 µM
GI50 [40]: 9.39 µM
TGI [40]: > 100 µM
GI50 [41]: 12.4 µM
TGI [41]: > 100 µM
GI50 [55]: 2.12 µM
TGI [55]: 28.2 µM
GI50 [42]: 1.97 µM
TGI [42]: 54.2 µM
GI50 [43]: 7.1 µM
TGI [43]: > 100 µM
GI50 [44]: 4.95 µM
TGI [44]: 81.3 µM
GI50 [45]: 21.5 µM
TGI [45]: > 100 µM
GI50 [46]: 3.17 µM
TGI [46]: 43.8 µM
GI50 [47]: 2.36 µM
TGI [47]: 14.5 µM
GI50 [48]: 5.44 µM
TGI [48]: > 100 µM
GI50 [49]: 9.15 µM
TGI [49]: > 100 µM
GI50 [50]: 6.06 µM
TGI [50]: > 100 µM
GI50 [56]: 2.89 µM
TGI [56]: 18.6 µM
GI50 [51]: 2.51 µM
TGI [51]: 47.7 µM
GI50 [57]: 71.8 µM
TGI [57]: > 100 µM
GI50 [52]: 13.9 µM
TGI [52]: 34 µM
GI50 [58]: 10.7 µM
TGI [58]: > 100 µM
GI50 [53]: 8.09 µM
TGI [53]: > 100 µM
